# According to patent publication US20220168430A1, “THERAPEUTIC METHODS FOR TREATING HEPATITIS B” (priority 2019, published 2022):
# Values joined by “and” are separate entries in the source; they are usually repeats but may differ in a detail not shown here. Equal entries are not always repeated. Where two headings read alike, the source gives them in different places.
# Columns and labels:
# [1] = tested on: HBV DNA; assay: HBV DNA by branched DNA assay in HepG2.2.15 cells, two-compound combinations (Examples 13-14); assay type: cell-based, HBV; HepG2.2.15 (human hepatoblastoma); conditions: for EC50: Hepatitis B virus; for Average percent inhibition versus negative control: n = 4; for Additive percent inhibition versus negative control: Compound (2) μM: 0.01, 0.0032, 0.001, 0.0003, 0.0001, 0
# Protocol: In vitro combination studies were conducted using the method of Prichard and Shipman (Prichard M N, and Shipman C Jr., Antiviral Research, 1990, 14(4-5), 181-205; and Prichard M N, et. al., MacSynergy II). The HepG2.2.15 cell culture system is a cell line derived from human hepatoblastoma HepG2 cells, which have been stably transfected with the adw2-subtype HBV genome as previously explained in Sells et al. (Proc. Natl. Acad. Sci. U. S. A, 1987. Vol 84:1005-1009). HepG2.2.15 cells secrete Dane-like viral particles, produce HBV DNA, and produce the viral proteins, HBeAg and HBsAg.
# Although inhibition of HBV DNA, RNA and proteins can be determined in the presence of these inhibitors, we used the branched DNA assay due to its ability to quantitatively measure the level HBV DNA.
# Detection of HBV DNA. The branched DNA assay (bDNA) was used to determine the effect of compound combinations on HBV DNA. HepG2.2.15 (10,000 cells/well) were cultured in DMEM medium plus supplements as described above. The next day, the cells were replenished with fresh medium followed by the addition of Inhibitor A and B, both were dissolved in 100% DMSO. The microtiter cell plates were incubated for a total duration of 6 days at 37° C. without replenishing media or compound. The serial dilutions spanned concentration ranges respective to the EC50 value of each compound. In addition to combination testing of the compounds, both inhibitors A and B were also tested singly.
# The level of bDNA present in the inhibitor-treated supernatant wells was measured using a Quantigene 2.0 bDNA assay kit (Affymetrix, Santa Clara, Calif.) with HBV specific custom probe set (genotype D ayw; DF-10739) and manufacturer's instructions after performing a proteinase K digestion in lysis. The plates were read using a Victor luminescence plate reader (PerkinElmer Model 1420 Multilabel counter) and the RLU data generated from each well was calculated as inhibition of the untreated control wells. The data was analyzed using the interpretive guidelines established by Prichard and Shipman combination model using the MacSynergy II program (Prichard M N, Shipman C Jr. Antiviral Research, 1990. Vol 14(4-5):181-205; Prichard M N, Aseltine KR, and Shipman, C. MacSynergy II. University of Michigan 1992) to determine whether the combinations were synergistic, additive or antagonistic using the interpretive guidelines established by Prichard and Shipman as follows: synergy volumes <25 μM2% (log volume <2) at 95% CI=probably insignificant; 25-50 (log volume >2 and <5)=minor but significant 50-100 (log volume >5 and <9)=moderate, may be important in vivo; Over 100 (log volume >9)=strong synergy, probably important in vivo; volumes approaching 1000 (log volume >90)=unusually high, check data. The RLU data from the single compound treated cells were analyzed using XL-Fit module in Microsoft Excel to determine EC50 values using a 4-parameter curve fitting algorithm.
# [2] = tested on: HepG2.2.15 cells; assay type: cell-based, human; conditions: Cmpd 2 μM: 0.01, 0.0032, 0.001, 0.0003, 0.0001, 0
# Description: The combination results were completed in duplicate with each assay consisting of 4 technical repeats.
# The combination results were completed in duplicate with each assay consisting of 4 technical repeats. In this assay system, the combination results in additive inhibition of HBV DNA.
# [3] = TAF 0.0002 μM, Cmpd 2 μM: 0.01, 0.0032, 0.001, 0.0003, 0.0001, 0
# [4] = TAF 0.0006 μM, Cmpd 2 μM: 0.01, 0.0032, 0.001, 0.0003, 0.0001, 0
# [5] = TAF 0.0020 μM, Cmpd 2 μM: 0.01, 0.0032, 0.001, 0.0003, 0.0001, 0
# [6] = TAF 0.0064 μM, Cmpd 2 μM: 0.01, 0.0032, 0.001, 0.0003, 0.0001, 0
# [7] = TAF 0.0201 μM, Cmpd 2 μM: 0.01, 0.0032, 0.001, 0.0003, 0.0001, 0
# [8] = TAF 0.0634 μM, Cmpd 2 μM: 0.01, 0.0032, 0.001, 0.0003, 0.0001, 0
# [9] = TAF 0.2002 μM, Cmpd 2 μM: 0.01, 0.0032, 0.001, 0.0003, 0.0001, 0
# [10] = TAF 0.6329 μM, Cmpd 2 μM: 0.01, 0.0032, 0.001, 0.0003, 0.0001, 0
# [11] = TAF 2.0 μM, Cmpd 2 μM: 0.01, 0.0032, 0.001, 0.0003, 0.0001, 0
smiles,measurement,setting,value
"CC(C)OC(=O)[C@H](C)N[P@](=O)(CO[C@H](C)Cn1cnc2c(N)ncnc21)Oc1ccccc1 [TAF, tenofovir alafenamide]",EC50,"[1]; HepG2.2.15, read-out: Inhibitor A EC50",54 nM
same,"MacSynergy Volume Calculations, 99.99% confidence interval (Bonferroni Adj. 96%)",[1]; [3],0
same,Average percent inhibition versus negative control,[1]; [3],8.88%
same,Additive percent inhibition versus negative control,[1]; TAF 0.0002 μM,8.88%
same,"MacSynergy Volume Calculations, 99.99% confidence interval (Bonferroni Adj. 96%)",[1]; [4],0
same,Average percent inhibition versus negative control,[1]; [4],12.91%
same,Additive percent inhibition versus negative control,[1]; TAF 0.0006 μM,12.91%
same,"MacSynergy Volume Calculations, 99.99% confidence interval (Bonferroni Adj. 96%)",[1]; [5],0
same,Average percent inhibition versus negative control,[1]; [5],14.28%
same,Additive percent inhibition versus negative control,[1]; TAF 0.0020 μM,14.28%
same,"MacSynergy Volume Calculations, 99.99% confidence interval (Bonferroni Adj. 96%)",[1]; [6],0
same,Average percent inhibition versus negative control,[1]; [6],19.87%
same,Additive percent inhibition versus negative control,[1]; TAF 0.0064 μM,19.87%
same,"MacSynergy Volume Calculations, 99.99% confidence interval (Bonferroni Adj. 96%)",[1]; [7],0
same,Average percent inhibition versus negative control,[1]; [7],25.36%
same,Additive percent inhibition versus negative control,[1]; TAF 0.0201 μM,25.36%
same,"MacSynergy Volume Calculations, 99.99% confidence interval (Bonferroni Adj. 96%)",[1]; [8],0
same,Average percent inhibition versus negative control,[1]; [8],42.96%
same,Additive percent inhibition versus negative control,[1]; TAF 0.0634 μM,42.96%
same,"MacSynergy Volume Calculations, 99.99% confidence interval (Bonferroni Adj. 96%)",[1]; [9],0
same,Average percent inhibition versus negative control,[1]; [9],62.7%
same,Additive percent inhibition versus negative control,[1]; TAF 0.2002 μM,62.7%
same,"MacSynergy Volume Calculations, 99.99% confidence interval (Bonferroni Adj. 96%)",[1]; [10],0
same,Average percent inhibition versus negative control,[1]; [10],76.45%
same,Additive percent inhibition versus negative control,[1]; TAF 0.6329 μM,76.45%
same,"MacSynergy Volume Calculations, 99.99% confidence interval (Bonferroni Adj. 96%)",[1]; [11],0
same,Average percent inhibition versus negative control,[1]; [11],87.21%
same,Additive percent inhibition versus negative control,[1]; TAF 2.0 μM,87.21%
same,Average percent of cell viability vs control,[2]; TAF 0.0002 μM,103.95%
same,Average percent of cell viability vs control,[2]; TAF 0.0006 μM,104.32%
same,Average percent of cell viability vs control,[2]; TAF 0.0020 μM,103.73%
same,Average percent of cell viability vs control,[2]; TAF 0.0064 μM,101.18%
same,Average percent of cell viability vs control,[2]; TAF 0.0201 μM,101.33%
same,Average percent of cell viability vs control,[2]; TAF 0.0634 μM,103.56%
same,Average percent of cell viability vs control,[2]; TAF 0.2002 μM,96.48%
same,Average percent of cell viability vs control,[2]; TAF 0.6329 μM,80.67%
same,Average percent of cell viability vs control,[2]; TAF 2.0 μM,88.67%
"C=C1[C@H](CO)[C@@H](O)C[C@@H]1n1cnc2c(=O)[nH]c(N)nc21 [ETV, entecavir]","MacSynergy Volume Calculations, 99.99% confidence interval (Bonferroni Adj. 96%)",[1],0.00
same,Average percent inhibition versus negative control,"[1]; ETV 0.0001 μM, Cmpd 2 μM: 0.01, 0.0032, 0.001, 0.0003, 0.0001, 0",−21.2%
same,Additive percent inhibition versus negative control,[1]; ETV 0.0001 μM,−21.2%
same,Average percent inhibition versus negative control,"[1]; ETV 0.001 μM, Cmpd 2 μM: 0.01, 0.0032, 0.001, 0.0003, 0.0001, 0",48.98%
same,Additive percent inhibition versus negative control,[1]; ETV 0.001 μM,48.98%
same,Average percent inhibition versus negative control,"[1]; ETV 0.1 μM, Cmpd 2 μM: 0.01, 0.0032, 0.001, 0.0003, 0.0001, 0",85.09%
same,Additive percent inhibition versus negative control,[1]; ETV 0.1 μM,85.09%
same,Average percent inhibition versus negative control,"[1]; ETV 1.0E−05 μM, Cmpd 2 μM: 0.01, 0.0032, 0.001, 0.0003, 0.0001, 0",−88.53%
same,Additive percent inhibition versus negative control,[1]; ETV 1.0E−05 μM,−88.53%
same,Average percent inhibition versus negative control,"[1]; ETV 1.00E−06 μM, Cmpd 2 μM: 0.01, 0.0032, 0.001, 0.0003, 0.0001, 0",−90.87%
same,Additive percent inhibition versus negative control,[1]; ETV 1.00E−06 μM,−90.87%
same,Average percent inhibition versus negative control,"[1]; ETV 3.16E−06 μM, Cmpd 2 μM: 0.01, 0.0032, 0.001, 0.0003, 0.0001, 0",−90.2%
same,Additive percent inhibition versus negative control,[1]; ETV 3.16E−06 μM,−90.2%
same,Average percent inhibition versus negative control,"[1]; ETV 3.17E−05 μM, Cmpd 2 μM: 0.01, 0.0032, 0.001, 0.0003, 0.0001, 0",−55.97%
same,Additive percent inhibition versus negative control,[1]; ETV 3.17E−05 μM,−55.97%
same,EC50,"[1]; HepG2.2.15, bDNA quantitation, read-out: Inhibitor A EC50",3.2 nM
same,Average percent of cell viability vs control,[2]; ETV 3.17E−05 μM,101.92%
COCCCOc1cc2c(nc1OC)-c1cc(=O)c(C(=O)O)cn1[C@H](C(C)C)C2 [Compound 2],"MacSynergy Volume Calculations, 99.99% confidence interval (Bonferroni Adj. 96%)","[1]; ETV 0 μM, Cmpd 2 μM: 0.01, 0.0032, 0.001, 0.0003, 0.0001, 0",0.00
same,EC50,"[1]; HepG2.2.15, HepG2.2.15, bDNA quantitation, study with ETV as Inhibitor A, read-out: Inhibitor B EC50",0.9 nM
same,EC50,"[1]; HepG2.2.15, HepG2.2.15, bDNA quantitation, study with TAF as Inhibitor A, read-out: Inhibitor B EC50",0.6 nM
same,"MacSynergy Volume Calculations, 99.99% confidence interval (Bonferroni Adj. 96%)","[1]; TAF 0 μM, Cmpd 2 μM: 0.01, 0.0032, 0.001, 0.0003, 0.0001, 0",0
same,Average percent of cell viability vs control,[2]; ETV 0 μM,92.68% and 81.35% and 91.36% and 92.57% and 80.37%
same,Average percent of cell viability vs control,[2]; TAF 0 μM,104.89% and 104.08% and 103.79% and 101.80% and 99.27%
